Data published in ChEMBL document CHEMBL3608289, “Miltirone Is a Dual Inhibitor of P-Glycoprotein and Cell Growth in Doxorubicin-Resistant HepG2 Cells” (J Nat Prod, 2015).
Activity calls are given as the source filed them.

Experiments:
HepG2 [1] = test: Cytotoxicity against human doxorubicin-resistant HepG2 cells expressing p-gp assessed as combination index after 24 hrs by MTT assay in presence of doxorubicin; type: functional
[2] = target: T1, Mitogen-activated protein kinase; ERK1/ERK2 (Homo sapiens) (UniProt P27361+P28482); test: Inhibition of ERK1/2 phosphorylation in human HepG2 cells at 1.56 to 25 uM by Western blot analysis; type: cell-based
T1 sequence (P27361 whole entry, looked up): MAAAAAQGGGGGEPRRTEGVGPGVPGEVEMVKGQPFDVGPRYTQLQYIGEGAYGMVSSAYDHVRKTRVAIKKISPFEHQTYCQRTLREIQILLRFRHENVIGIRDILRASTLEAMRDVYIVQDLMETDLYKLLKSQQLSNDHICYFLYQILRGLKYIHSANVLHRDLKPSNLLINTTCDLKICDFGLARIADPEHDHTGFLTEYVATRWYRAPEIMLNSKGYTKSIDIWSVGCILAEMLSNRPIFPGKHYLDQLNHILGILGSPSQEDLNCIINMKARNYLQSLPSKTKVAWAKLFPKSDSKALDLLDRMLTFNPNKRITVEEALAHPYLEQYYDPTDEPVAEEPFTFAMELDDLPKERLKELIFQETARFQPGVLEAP
T1 sequence (P28482 whole entry, looked up): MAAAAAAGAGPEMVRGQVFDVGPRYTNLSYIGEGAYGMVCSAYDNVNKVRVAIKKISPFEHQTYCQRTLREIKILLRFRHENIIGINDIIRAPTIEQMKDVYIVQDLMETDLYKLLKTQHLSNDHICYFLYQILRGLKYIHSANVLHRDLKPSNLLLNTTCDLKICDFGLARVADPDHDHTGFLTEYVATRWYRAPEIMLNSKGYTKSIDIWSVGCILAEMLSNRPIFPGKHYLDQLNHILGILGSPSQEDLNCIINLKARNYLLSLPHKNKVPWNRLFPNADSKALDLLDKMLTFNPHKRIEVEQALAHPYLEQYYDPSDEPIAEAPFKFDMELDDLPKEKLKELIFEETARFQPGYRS

HepG2 [3] = test: Increase of SAPK/JNK phosphorylation in human doxorubicin-resistant HepG2 cells expressing p-gp at 1.56 to 25 uM by Western blot analysis; type: cell-based
HepG2 [4] = test: Induction of oxidative stress in human doxorubicin-resistant HepG2 cells expressing p-gp assessed as decrease of GSH level per gram of protein at 6.25 to 25 uM after 24 hrs using DTNB by enzymatic kinetic method relative to control; type: functional, cell-based
HepG2 [5] = test: Induction of oxidative stress in human doxorubicin-resistant HepG2 cells expressing p-gp assessed as decrease of GSH level per gram of protein at 25 uM after 24 hrs using DTNB by enzymatic kinetic method relative to control; type: functional
HepG2 [6] = test: Increase of SAPK/JNK phosphorylation in human doxorubicin-resistant HepG2 cells expressing p-gp at 1.56 to 25 uM by Western blot analysis in presence of SB203580; type: cell-based
HepG2 [7] = test: Induction of ROS generation in human HepG2 cells at 25 uM after 15 to 30 mins using H2DCFH dye by confocal microscopy; type: functional, cell-based
HepG2 [8] = test: Effect on nonphosphorylated ERK1/ERK2 level in human HepG2 cells at 25 uM by Western blot analysis; type: ADME, cell-based; settings: hepg2, 25 µM
HepG2 [9] = test: Effect on nonphosphorylated p38 MAPK level in human doxorubicin-resistant HepG2 cells expressing p-gp at 25 uM by Western blot analysis; type: ADME, cell-based; settings: hepg2, 25 µM
HepG2 [10] = test: Induction of oxidative stress in human HepG2 cells assessed as decrease of GSH level per gram of protein at 25 uM after 24 hrs using DTNB by enzymatic kinetic method relative to control; type: functional
HepG2 [11] = test: Induction of oxidative stress in human doxorubicin-resistant HepG2 cells expressing p-gp assessed as increase of GSH/GSSG ratio at 1.56 to 3.12 uM after 24 hrs using DTNB by enzymatic kinetic method; type: functional, cell-based
HepG2 [12] = test: Cytotoxicity against human HepG2 cells after 24 hrs by MTT assay in presence of doxorubicin; type: functional, cell-based; settings: HepG2, 24 h
HepG2 [13] = test: Induction of apoptosis in human doxorubicin-resistant HepG2 cells expressing p-gp assessed as increase in PARP cleavage after 24 hrs by Western blotting; type: functional, cell-based
HepG2 [14] = test: Induction of apoptosis in human HepG2 cells assessed as activation of caspase-3/8/9 at 12.5 after 24 hrs by Western blotting in presence of Z-VAD-FMK; type: functional, cell-based
HepG2 [15] = test: Induction of apoptosis in human HepG2 cells assessed as activation of caspase-3/8/9 after 24 hrs by Western blotting; type: functional, cell-based
[16] = target: ATP-dependent translocase ABCB1 (Homo sapiens, UniProt P08183); test: Inhibition of p-glycoprotein in human doxorubicin-resistant HepG2 cells assessed as reduction of doxorubicin efflux after 1 hr by flow cytometry; type: cell-based; settings: hepg2, 1 h
ATP-dependent translocase ABCB1, sequence (P08183 whole entry): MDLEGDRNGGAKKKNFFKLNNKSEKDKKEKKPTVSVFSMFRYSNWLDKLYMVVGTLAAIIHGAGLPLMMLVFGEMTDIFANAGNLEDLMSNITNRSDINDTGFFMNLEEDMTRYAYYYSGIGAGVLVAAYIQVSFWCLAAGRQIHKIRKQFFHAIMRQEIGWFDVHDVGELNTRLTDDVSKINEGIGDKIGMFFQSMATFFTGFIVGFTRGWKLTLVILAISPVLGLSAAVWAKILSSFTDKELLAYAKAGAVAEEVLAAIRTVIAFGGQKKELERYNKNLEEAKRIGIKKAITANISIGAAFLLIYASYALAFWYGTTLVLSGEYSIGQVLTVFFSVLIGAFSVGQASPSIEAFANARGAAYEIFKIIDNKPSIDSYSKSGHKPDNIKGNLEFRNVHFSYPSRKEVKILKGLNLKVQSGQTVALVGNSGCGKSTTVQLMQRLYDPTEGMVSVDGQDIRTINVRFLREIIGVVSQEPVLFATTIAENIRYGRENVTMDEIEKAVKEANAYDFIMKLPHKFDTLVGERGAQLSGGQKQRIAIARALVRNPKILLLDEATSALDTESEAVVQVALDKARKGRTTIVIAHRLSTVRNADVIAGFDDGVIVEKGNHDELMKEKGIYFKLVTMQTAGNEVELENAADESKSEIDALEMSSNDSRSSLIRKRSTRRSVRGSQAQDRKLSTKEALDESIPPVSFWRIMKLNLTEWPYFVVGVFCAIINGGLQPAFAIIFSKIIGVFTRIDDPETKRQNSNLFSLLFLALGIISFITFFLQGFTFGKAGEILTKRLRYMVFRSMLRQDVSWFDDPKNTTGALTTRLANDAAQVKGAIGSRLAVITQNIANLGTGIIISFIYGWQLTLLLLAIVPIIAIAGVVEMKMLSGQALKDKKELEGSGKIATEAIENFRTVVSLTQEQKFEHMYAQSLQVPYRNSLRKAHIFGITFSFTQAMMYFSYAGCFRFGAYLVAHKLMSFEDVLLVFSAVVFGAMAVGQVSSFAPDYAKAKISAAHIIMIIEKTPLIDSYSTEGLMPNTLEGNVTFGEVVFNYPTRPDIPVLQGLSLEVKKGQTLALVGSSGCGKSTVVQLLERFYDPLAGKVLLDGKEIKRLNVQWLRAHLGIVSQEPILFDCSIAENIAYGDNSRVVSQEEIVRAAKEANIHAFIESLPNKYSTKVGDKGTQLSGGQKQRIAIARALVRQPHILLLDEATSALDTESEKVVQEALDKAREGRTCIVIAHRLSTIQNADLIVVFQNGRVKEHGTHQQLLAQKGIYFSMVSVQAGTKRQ

HepG2 [17] = test: Increase of SAPK/JNK phosphorylation in human HepG2 cells at 1.56 to 25 uM by Western blot analysis in presence of SB203580; type: cell-based
HepG2 [18] = test: Effect on nonphosphorylated SAPK/JNK level in human doxorubicin-resistant HepG2 cells expressing p-gp at 25 uM by Western blot analysis; type: ADME, cell-based; settings: hepg2, 25 µM
HepG2 [19] = test: Induction of necrosis in human HepG2 cells assessed as LDH leakage at >50 uM after 24 hrs; type: functional, cell-based
HepG2 [20] = test: Increase of SAPK/JNK phosphorylation in human HepG2 cells at 1.56 to 25 uM by Western blot analysis in presence of NAC; type: cell-based
[21] = target: T2, MAP kinase p38 (Homo sapiens) (UniProt O15264+Q15759+Q16539+P53778); test: Inhibition of p38 MAPK phosphorylation in human HepG2 cells at 1.56 to 25 uM by Western blot analysis; type: cell-based
[22] = target: T2, MAP kinase p38 (Homo sapiens); test: Inhibition of p38 MAPK phosphorylation in human HepG2 cells at 1.56 to 25 uM by Western blot analysis in presence of NAC; type: cell-based
HepG2 [23] = test: Induction of apoptosis in human doxorubicin-resistant HepG2 cells expressing p-gp assessed as activation of caspase-3/8/9 at 12.5 after 24 hrs by Western blotting in presence of Z-LEHD-FMK; type: functional, cell-based
HepG2 [24] = test: Effect on nonphosphorylated p38 MAPK level in human HepG2 cells at 25 uM by Western blot analysis; type: ADME, cell-based; settings: hepg2, 25 µM
HepG2 [25] = test: Increase of SAPK/JNK phosphorylation in human doxorubicin-resistant HepG2 cells expressing p-gp at 1.56 to 25 uM by Western blot analysis in presence of NAC; type: cell-based
HepG2 [26] = test: Induction of apoptosis in human HepG2 cells assessed as activation of caspase-3/8/9 at 12.5 after 24 hrs by Western blotting in presence of Z-LEHD-FMK; type: functional, cell-based
HepG2 [27] = test: Induction of apoptosis in human doxorubicin-resistant HepG2 cells expressing p-gp assessed as activation of caspase-3/8/9 at 12.5 after 24 hrs by Western blotting in presence of Z-IETD-FMK; type: functional, cell-based
HepG2 [28] = test: Induction of necrosis in human HepG2 cells assessed as LDH leakage at 25 uM after 24 hrs; type: functional, cell-based
HepG2 [29] = test: Induction of apoptosis in human HepG2 cells assessed as activation of caspase-3/8/9 at 12.5 after 24 hrs by Western blotting in presence of trolox; type: functional, cell-based
HepG2 [30] = test: Cytotoxicity against human doxorubicin-resistant HepG2 cells expressing p-gp after 24 hrs by MTT assay; type: functional, cell-based; settings: HepG2, 24 h
[31] = target: T1, Mitogen-activated protein kinase; ERK1/ERK2 (Homo sapiens); test: Inhibition of ERK1/2 phosphorylation in human doxorubicin-resistant HepG2 cells expressing p-gp at 1.56 to 25 uM by Western blot analysis in presence of NAC; type: cell-based
HepG2 [32] = test: Induction of ROS generation in human doxorubicin-resistant HepG2 cells expressing p-gp at 25 uM after 15 mins using H2DCFH dye by confocal microscopy; type: functional, cell-based
[33] = target: T2, MAP kinase p38 (Homo sapiens); test: Inhibition of p38 MAPK phosphorylation in human doxorubicin-resistant HepG2 cells expressing p-gp at 1.56 to 25 uM by Western blot analysis in presence of SB203580; type: cell-based
HepG2 [34] = test: Induction of oxidative stress in human doxorubicin-resistant HepG2 cells expressing p-gp assessed as decrease of GSSG level per gram of protein at 25 uM after 24 hrs using DTNB by enzymatic kinetic method relative to control; type: functional, cell-based
[35] = target: T2, MAP kinase p38 (Homo sapiens); test: Inhibition of p38 MAPK phosphorylation in human HepG2 cells at 1.56 to 25 uM by Western blot analysis in presence of SB203580; type: cell-based
HepG2 [36] = test: Cytotoxicity against human HepG2 cells after 24 hrs by MTT assay; type: functional, cell-based; settings: HepG2, 24 h
HepG2 [37] = test: Induction of apoptosis in human doxorubicin-resistant HepG2 cells expressing p-gp assessed as activation of caspase-3/8/9 at 12.5 after 24 hrs by Western blotting in presence of trolox; type: functional, cell-based

CC(C)C1=Cc2ccc3c(c2C(=O)C1=O)CCCC3(C)C [MILTIRONE]
Non-toxic: Activity (HepG2 [8]) | Activity (HepG2 [9]) | Activity (HepG2 [18]) | Activity (HepG2 [24])
inactive: Activity (HepG2 [11]) | Activity (HepG2 [14]) | Activity (HepG2 [17]) | inhibition (HepG2 [20]) | inhibition [22] | Activity (HepG2 [23]) | inhibition (HepG2 [25]) | Activity (HepG2 [26]) | Activity (HepG2 [27]) | Activity (HepG2 [28]) | Activity (HepG2 [29]) | inhibition [31] | inhibition [33] | Activity (HepG2 [34]) | inhibition [35] | Activity (HepG2 [37])
active: inhibition [2] | Activity (HepG2 [3]) | Activity (HepG2 [4]) | Activity (HepG2 [6]) | Activity (HepG2 [7]) | Activity (HepG2 [13]) | Activity (HepG2 [15]) | Activity (HepG2 [19]) | inhibition [21] | Activity (HepG2 [32])
2.4 µmol: Activity (HepG2 [10])
12 µM: EC50 (HepG2 [30])
30.9 µM: EC50 (HepG2 [12])
1.2 µmol: Activity (HepG2 [5])
1.56: CI (HepG2 [1])
Active: inhibition (INH) [16]
7.1 µM: EC50 (HepG2 [36])
